Assays:
CaT1 mRNA = test: Northern analysis of CaT1 mRNA in rat duodenum in vivo
Method: Northern analysis procedures were as follows. Poly(A)^+ RNA (3 μg) from rat tissues were electrophoresed in formaldehyde-agarose gels and transferred to nitrocellulose membranes. The filters were probed with ^32P-labeled full-length CaT1 cDNA, hybridized at 42° C. with a solution containing 50% formamide, 5×SSPE, 2× Denhardt's solution, 0.1% SDS and 100 μg/ml denatured salmon sperm DNA (and washed with 5×SSC/0.1% SDS at 50° C. for 2×30 minutes and 0.1×SSC at 65° C. for 3×30 minutes. Autoradiography was performed at −80° C. for 1 to 2 days.

CaT1 [1] = molecular target: T1, CaT1 (Rattus norvegicus, UniProt Q9R186); test: ^45Ca^2+ uptake assay in Xenopus laevis oocytes expressing CaT1; assay type: cell-based; details: for inhibition of ^45Ca^2+ uptake: cation 10 mM; for inhibition of ^45Ca^2+ uptake by di- and trivalent cations: 1 mM Ca^2+, cation 100 μM
T1 construct: ID; No. 4; expressed in transfected cells; host or cells: Xenopus laevis oocytes injected with synthetic cRNA of the cloned rat cDNA
T1 sequence (Q9R186 41-767): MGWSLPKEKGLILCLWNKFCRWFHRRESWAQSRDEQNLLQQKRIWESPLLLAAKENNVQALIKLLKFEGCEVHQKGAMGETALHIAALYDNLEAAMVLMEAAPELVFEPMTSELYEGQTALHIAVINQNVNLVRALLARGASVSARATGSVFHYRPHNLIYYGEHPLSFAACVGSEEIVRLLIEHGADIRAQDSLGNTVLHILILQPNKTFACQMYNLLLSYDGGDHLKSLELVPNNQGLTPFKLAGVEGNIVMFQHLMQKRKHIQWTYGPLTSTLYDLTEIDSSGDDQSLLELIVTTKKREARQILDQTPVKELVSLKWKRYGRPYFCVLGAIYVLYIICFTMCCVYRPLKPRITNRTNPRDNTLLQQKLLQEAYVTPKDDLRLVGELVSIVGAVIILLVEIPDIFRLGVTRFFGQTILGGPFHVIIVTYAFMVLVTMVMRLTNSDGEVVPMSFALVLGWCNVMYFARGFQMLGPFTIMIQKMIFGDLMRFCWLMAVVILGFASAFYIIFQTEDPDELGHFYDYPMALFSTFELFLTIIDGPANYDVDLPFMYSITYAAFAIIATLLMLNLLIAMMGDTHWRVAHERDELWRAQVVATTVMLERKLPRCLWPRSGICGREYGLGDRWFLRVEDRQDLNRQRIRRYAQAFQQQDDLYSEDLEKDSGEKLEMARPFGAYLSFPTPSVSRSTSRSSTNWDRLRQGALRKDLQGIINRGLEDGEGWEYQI
Method: ^45Ca^2+ uptake assay—Defolliculated Xenopus laevis oocytes were injected with either 50 nl of water or RNA. ^45Ca^2+ uptake was assayed 3 days after injection of poly(A)^+ or 1–3 days a injection of synthetic complementary RNA (cRNA). For expression cloning, oocytes were incubated in modified Barth's solution supplemented with 1 mM SrCl2 (to avoid excessive loading of oocytes with Ca^2+) as well as penicillin, streptomycin and gentamycin at 1 mg/ml. Standard uptake solution contained the following components (in mM): NaCl 100, KCl 2, MgCl2 1, CaCl2 1 (including ^45Ca^2+), Hepes 10, pH 7.5. Uptake was performed at room temperature for 30 minutes (for the expression cloning procedure, 2 hour uptakes were employed), and oocytes were washed 6 times with ice-cold uptake medium plus 20 mM MgCl2. […] Control experiments were performed with the appropriate ethanol and DMSO concentrations. Unless stated specifically, data are presented as means obtained from at least three experiments with 7 to 10 oocytes per group with standard error of the mean (S.E.M.) as the index of dispersion. Statistical significance was defined as having a P value of less than 0.05 as determined by Student's t-test.

CaT1 [2] = molecular target: T1, CaT1; test: Two-microelectrode voltage clamp of oocytes expressing CaT1; assay type: cell-based; details: for current as percentage of the current evoked by 5 mM Ca^2+: 5 mM cation, EGTA-injected oocytes clamped at −50 mV, n=17; for currents evoked by metal ions / effect on Ca^2+-evoked currents: each at 100 μM
Method: (§1) Two-microelectrode voltage clamp experiments were performed using standard techniques (see Chen et al., J. Biol. Chem. 274:2773–2779 (1999)) using a commercial amplifier and pCLAMP software (Version 7, Axon Instruments, Inc., Foster City, Calif.). An oocyte was introduced into the chamber containing Ca^2+-free solution and was incubated for about 3 minutes before being clamped at −50 mV and subjected to measurements. In experiments involving voltage ramps or jumps, whole-cell current and voltage were recorded by digitizing at 300 μs/sample and by Bessel filtering at 10 kHz. When recording currents at a holding potential, digitization at 0.2 s/sample and filtering at 20 Hz were employed. Voltage ramping consisted of pre-holding at −150 mV for 200 ms to eliminate capacitive currents and a subsequent linear increase from −150 to +50 mV, with a total duration of […]. Voltage jumping consisted of 150 ms voltage pulses of between −140 and +60 mV, in increments of +20 mV. Steady-state currents were obtained as the average values in the interval from 135 to 145 ms after the initiation of the voltage pulses. For experiments involving voltage-clamped ^45Ca^2+ uptake, Ca^2+-evoked currents and uptake of ^45Ca^2+ were simultaneously measured at −50 mV, using a method similar to that described in Chen et al. (cited above).

[3] = test system: endogenous Ca^2+-activated chloride-channel currents; test: Block of the peak current in voltage-clamped oocytes by chloride channel blockers; assay type: cell-based, Xenopus laevis; details: 5 mM Ca^2+; holding potential −50 mV
Method: as §1, with “above). […]” for “above).”

Row | inhibition of ^45Ca^2+ uptake by di- and trivalent cations (CaT1 [1]) | currents evoked by metal ions (CaT1 [2]) | effect on Ca^2+-evoked currents (CaT1 [2]) | SMILES | also measured
1 | – | – | – | C=C1/C(=C\C=C2/CCC[C@]3(C)[C@@H]([C@H](C)CCCC(C)(C)O)CC[C@@H]23)C[C@@H](O)C[C@@H]1O [1,25-dihydroxyvitamin D3] | regulation of CaT1 mRNA in rat duodenum (CaT1 mRNA): not regulated
2 | – | – | – | [Ba+2] [Ba^2+] | inhibition of ^45Ca^2+ uptake (CaT1 [1]): only slight inhibitory effects; current as percentage of the current evoked by 5 mM Ca^2+ (CaT1 [2]): 12±2%
3 | – | – | – | [Ca+2] [Ca^2+] | Km (CaT1 [1]; CaT1 expressed in oocytes, read-out: apparent Michaelis constant (Km) of Ca^2+ uptake): 440 ± 70 µM; plateau value of inward current (CaT1 [2]; 5 mM Ca^2+, holding potential −50 mV): 20–50 nA
4 | – | – | – | COc1cc(CNC(=O)CCCC/C=C/C(C)C)ccc1O [Capsaicin, capsaicin] | stimulation of CaT1-mediated ^45Ca^2+ uptake in oocytes (CaT1 [1]; capsaicin up to 50 μM): did not stimulate
5 | marked to moderate inhibition | did not evoke measurable currents | inhibited | [Cu+2] [Cu^2+] | –
6 | – | – | – | O=C(O)CN(CCOCCOCCN(CC(=O)O)CC(=O)O)CC(=O)O [EGTA, ethylene glycol-bis(β-aminoethylether)-N,N,N′,N′-tetraacetic acid] | increase in Ca^2+ uptake (CaT1 [1]; EGTA injected into oocytes to a final concentration of 1–2 mM): three- to five-fold increase; effect on overshoot of Ca^2+-evoked inward current (CaT1 [2]; EGTA injected to a final concentration of 1–2 mM, −50 mV): abolished the overshoot
7 | no significant effects | did not evoke measurable currents | no observable effects | [Fe+3] [Fe^3+] | –
8 | marked to moderate inhibition | did not evoke measurable currents | inhibited | [Gd+3] [Gd^3+] | –
9 | marked to moderate inhibition | did not evoke measurable currents | inhibited | [La+3] [La^3+] | –
10 | – | – | – | [Mg+2] [Mg^2+] | inhibition of ^45Ca^2+ uptake (CaT1 [1]): no significant inhibition; blocker of CaT1 (CaT1 [2]): nor an effective blocker; substrate of CaT1 (CaT1 [2]; up to 20 mM): neither a substrate
11 | no significant effects | did not evoke measurable currents | no observable effects | [Mn+2] [Mn^2+] | –
12 | – | – | – | [Na+] [Na^+] | Ca^2+ entry with extracellular Na^+ (CaT1 [1]; non-clamped oocytes, Ca^2+ applied for 30 minutes): enhanced; Ca^2+-evoked currents in the presence versus absence of Na^+ (CaT1 [2]; 100 mM Na^+): slightly lower
13 | – | – | – | [Sr+2] [Sr^2+] | inhibition of ^45Ca^2+ uptake (CaT1 [1]): only slight inhibitory effects; current as percentage of the current evoked by 5 mM Ca^2+ (CaT1 [2]): 20±4%
14 | – | did not evoke measurable currents | no observable effects | [Zn+2] [Zn^2+] | –
15 | – | – | – | O=C(O)c1ccccc1Nc1cccc(C(F)(F)F)c1 [flufenamate] | block of the peak current [3]: could be blocked
16 | – | – | – | C/C=C(/C)C(=O)O[C@H]1C(C)=C2[C@H]([C@@H]1OC(=O)CCCCCCC)[C@@](C)(OC(C)=O)C[C@H](OC(=O)CCC)[C@@]1(O)[C@H]2OC(=O)[C@@]1(C)O [thapsigargin] | CaT1-mediated Ca^2+ activity relative to its baseline activity (CaT1 [1]; depletion of calcium stores by thapsigargin treatment): about 20%

Row | SMILES | inhibition of ^45Ca^2+ uptake by di- and trivalent cations (CaT1 [1]) | currents evoked by metal ions (CaT1 [2]) | effect on Ca^2+-evoked currents (CaT1 [2]) | also measured
17 | [Cd+2] [Cd^2+] | marked to moderate inhibition | did not evoke measurable currents | inhibited | –
18 | [Co+2] [Co^2+] | marked to moderate inhibition | did not evoke measurable currents | inhibited | –
19 | [Ni+2] [Ni^2+] | – | did not evoke measurable currents | inhibited | –
20 | [Pb+2] [Pb^2+] | marked to moderate inhibition | did not evoke measurable currents | inhibited | –
